According to ChEMBL document CHEMBL5370535, “Thiazolyl hydrazineylidenyl indolones as unique potential multitargeting broad-spectrum antimicrobial agents” (Eur J Med Chem, 2023):
≈ marks a conversion by molar mass, not a printed value.

Legend:
Type in all cases: functional
[1] = test system: Staphylococcus aureus; assay: Antibacterial activity against Staphylococcus aureus 25923 assessed as bacterial growth inhibition incubated for 24 hrs by CLSI based two serial dilution assay
[2] = test system: Escherichia coli; assay: Antibacterial activity against Escherichia coli assessed as bacterial growth inhibition incubated for 24 hrs by CLSI based two serial dilution assay
[3] = test system: Staphylococcus aureus; assay: Antibacterial activity against Staphylococcus aureus assessed as bacterial growth inhibition incubated for 24 hrs by CLSI based two serial dilution assay
[4] = test system: Staphylococcus aureus; assay: Antibacterial activity against Staphylococcus aureus 29213 assessed as bacterial growth inhibition incubated for 24 hrs by CLSI based two serial dilution assay
[5] = test system: Enterococcus faecalis; assay: Antibacterial activity against Enterococcus faecalis assessed as bacterial growth inhibition incubated for 24 hrs by CLSI based two serial dilution assay
[6] = test system: Escherichia coli; assay: Antibacterial activity against Escherichia coli 25922 assessed as bacterial growth inhibition incubated for 24 hrs by CLSI based two serial dilution assay
[7] = test system: Pseudomonas aeruginosa; assay: Antibacterial activity against Pseudomonas aeruginosa assessed as bacterial growth inhibition incubated for 24 hrs by CLSI based two serial dilution assay
[8] = test system: Staphylococcus aureus; assay: Antibacterial activity against methicillin-resistant Staphylococcus aureus assessed as bacterial growth inhibition incubated for 24 hrs by CLSI based two serial dilution assay
[9] = test system: Klebsiella pneumoniae; assay: Antibacterial activity against Klebsiella pneumoniae assessed as bacterial growth inhibition incubated for 24 hrs by CLSI based two serial dilution assay
[10] = test system: Pseudomonas aeruginosa; assay: Antibacterial activity against Pseudomonas aeruginosa ATCC 27853 assessed as bacterial growth inhibition incubated for 24 hrs by CLSI based two serial dilution assay
[11] = test system: Acinetobacter baumannii; assay: Antibacterial activity against Acinetobacter baumannii assessed as bacterial growth inhibition incubated for 24 hrs by CLSI based two serial dilution assay
[12] = test system: Candida tropicalis; assay: Antifungal activity against Candida tropicalis assessed as inhibition of fungal growth incubated for 24 hrs by CLSI based two serial dilution assay
[13] = test system: Candida parapsilosis; assay: Antifungal activity against Candida parapsilosis ATCC 22019 assessed as inhibition of fungal growth incubated for 24 hrs by CLSI based two serial dilution assay; details: Lodderomyces parapsilosis
[14] = test system: Aspergillus fumigatus; assay: Antifungal activity against Aspergillus fumigatus assessed as inhibition of fungal growth incubated for 24 hrs by CLSI based two serial dilution assay
[15] = test system: Candida albicans; assay: Antifungal activity against Candida albicans ATCC 90023 assessed as inhibition of fungal growth incubated for 24 hrs by CLSI based two serial dilution assay
[16] = test system: Candida albicans; assay: Antifungal activity against Candida albicans assessed as inhibition of fungal growth incubated for 24 hrs by CLSI based two serial dilution assay

Compound: C=CC1=C(C(=O)O)N2C(=O)[C@@H](NC(=O)/C(=N\O)c3csc(N)n3)[C@H]2SC1 [CEFDINIR]
- MIC [1]: 0.5 µM (≈ 0.198 µg/mL)
- MIC [2]: 1 µM (≈ 0.395 µg/mL)
- MIC [3]: 1 µM (≈ 0.395 µg/mL)
- MIC [4]: 0.5 µM (≈ 0.198 µg/mL)
- MIC [5]: 2 µM (≈ 0.791 µg/mL)
- MIC [6]: 2 µM (≈ 0.791 µg/mL)
- MIC [7]: 0.5 µM (≈ 0.198 µg/mL)
- MIC [8]: 1 µM (≈ 0.395 µg/mL)
- MIC [9]: 0.5 µM (≈ 0.198 µg/mL)
- MIC [10]: 1 µM (≈ 0.395 µg/mL)
- MIC [11]: 2 µM (≈ 0.791 µg/mL)

Compound: O=C1/C(=N\Nc2nccs2)c2ccccc2N1Cc1ccc(Cl)cc1
- MIC [1]: 4 µM (≈ 1.48 µg/mL)
- MIC [2]: 128 µM (≈ 47.2 µg/mL)
- MIC [3]: 4 µM (≈ 1.48 µg/mL)
- MIC [4]: 4 µM (≈ 1.48 µg/mL)
- MIC [12]: 16 µM (≈ 5.9 µg/mL)
- MIC [5]: 64 µM (≈ 23.6 µg/mL)
- MIC [6]: 32 µM (≈ 11.8 µg/mL)
- MIC [7]: 16 µM (≈ 5.9 µg/mL)
- MIC [8]: 64 µM (≈ 23.6 µg/mL)
- MIC [9]: 32 µM (≈ 11.8 µg/mL)
- MIC [10]: 128 µM (≈ 47.2 µg/mL)
- MIC [13]: 4 µM (≈ 1.48 µg/mL)
- MIC [14]: 16 µM (≈ 5.9 µg/mL)
- MIC [15]: 32 µM (≈ 11.8 µg/mL)
- MIC [11]: 64 µM (≈ 23.6 µg/mL)
- MIC [16]: 16 µM (≈ 5.9 µg/mL)

Compound: CCCCN1C(=O)/C(=N\Nc2nc(C)cs2)c2ccccc21
- MIC [1]: 8 µM (≈ 2.52 µg/mL)
- MIC [2]: 16 µM (≈ 5.03 µg/mL)
- MIC [3]: 32 µM (≈ 10.1 µg/mL)
- MIC [4]: 32 µM (≈ 10.1 µg/mL)
- MIC [12]: 4 µM (≈ 1.26 µg/mL)
- MIC [5]: 16 µM (≈ 5.03 µg/mL)
- MIC [6]: 4 µM (≈ 1.26 µg/mL)
- MIC [7]: 1 µM (≈ 0.314 µg/mL)
- MIC [8]: 2 µM (≈ 0.629 µg/mL)
- MIC [9]: 4 µM (≈ 1.26 µg/mL)
- MIC [10]: 512 µM (≈ 161 µg/mL)
- MIC [13]: 256 µM (≈ 80.5 µg/mL)
- MIC [14]: 64 µM (≈ 20.1 µg/mL)
- MIC [15]: 1 µM (≈ 0.314 µg/mL)
- MIC [11]: 4 µM (≈ 1.26 µg/mL)
- MIC [16]: 256 µM (≈ 80.5 µg/mL)

Compound: CCCCN1C(=O)/C(=N\Nc2nccs2)c2cc(OC)ccc21
- MIC [1]: 16 µM (≈ 5.29 µg/mL)
- MIC [2]: 16 µM (≈ 5.29 µg/mL)
- MIC [3]: 32 µM (≈ 10.6 µg/mL)
- MIC [4]: 16 µM (≈ 5.29 µg/mL)
- MIC [12]: 128 µM (≈ 42.3 µg/mL)
- MIC [5]: 4 µM (≈ 1.32 µg/mL)
- MIC [6]: 4 µM (≈ 1.32 µg/mL)
- MIC [7]: 4 µM (≈ 1.32 µg/mL)
- MIC [8]: 8 µM (≈ 2.64 µg/mL)
- MIC [9]: 128 µM (≈ 42.3 µg/mL)
- MIC [10]: 32 µM (≈ 10.6 µg/mL)
- MIC [13]: 16 µM (≈ 5.29 µg/mL)
- MIC [14]: 32 µM (≈ 10.6 µg/mL)
- MIC [15]: 32 µM (≈ 10.6 µg/mL)
- MIC [11]: 16 µM (≈ 5.29 µg/mL)
- MIC [16]: 64 µM (≈ 21.1 µg/mL)

Compound: CCCCN1C(=O)/C(=N\Nc2nccs2)c2cc(Cl)ccc21
- MIC [1]: 1 µM (≈ 0.335 µg/mL)
- MIC [2]: 1 µM (≈ 0.335 µg/mL)
- MIC [3]: 1 µM (≈ 0.335 µg/mL)
- MIC [4]: 1 µM (≈ 0.335 µg/mL)
- MIC [12]: 16 µM (≈ 5.36 µg/mL)
- MIC [5]: 32 µM (≈ 10.7 µg/mL)
- MIC [6]: 0.5 µM (≈ 0.167 µg/mL)
- MIC [7]: 0.5 µM (≈ 0.167 µg/mL)
- MIC [8]: 1 µM (≈ 0.335 µg/mL)
- MIC [9]: 0.5 µM (≈ 0.167 µg/mL)
- MIC [10]: 0.5 µM (≈ 0.167 µg/mL)
- MIC [13]: 0.5 µM (≈ 0.167 µg/mL)
- MIC [14]: 4 µM (≈ 1.34 µg/mL)
- MIC [15]: 2 µM (≈ 0.67 µg/mL)
- MIC [11]: 1 µM (≈ 0.335 µg/mL)
- MIC [16]: 0.5 µM (≈ 0.167 µg/mL)

Compound: O=C1/C(=N\Nc2nccs2)c2ccccc2N1Cc1ccc(F)cc1
- MIC [1]: 4 µM (≈ 1.41 µg/mL)
- MIC [2]: 16 µM (≈ 5.64 µg/mL)
- MIC [3]: 64 µM (≈ 22.6 µg/mL)
- MIC [4]: 4 µM (≈ 1.41 µg/mL)
- MIC [12]: 32 µM (≈ 11.3 µg/mL)
- MIC [5]: 2 µM (≈ 0.705 µg/mL)
- MIC [6]: 16 µM (≈ 5.64 µg/mL)
- MIC [7]: 16 µM (≈ 5.64 µg/mL)
- MIC [8]: 128 µM (≈ 45.1 µg/mL)
- MIC [9]: 16 µM (≈ 5.64 µg/mL)
- MIC [10]: 4 µM (≈ 1.41 µg/mL)
- MIC [13]: 64 µM (≈ 22.6 µg/mL)
- MIC [14]: 128 µM (≈ 45.1 µg/mL)
- MIC [15]: 128 µM (≈ 45.1 µg/mL)
- MIC [11]: 16 µM (≈ 5.64 µg/mL)
- MIC [16]: 32 µM (≈ 11.3 µg/mL)

Compound: CCCCN1C(=O)/C(=N\Nc2nccs2)c2cccc(F)c21
- MIC [1]: 1 µM (≈ 0.318 µg/mL)
- MIC [2]: 4 µM (≈ 1.27 µg/mL)
- MIC [3]: 16 µM (≈ 5.09 µg/mL)
- MIC [4]: 16 µM (≈ 5.09 µg/mL)
- MIC [12]: 1 µM (≈ 0.318 µg/mL)
- MIC [5]: 2 µM (≈ 0.637 µg/mL)
- MIC [6]: 1 µM (≈ 0.318 µg/mL)
- MIC [7]: 1 µM (≈ 0.318 µg/mL)
- MIC [8]: 4 µM (≈ 1.27 µg/mL)
- MIC [9]: 1 µM (≈ 0.318 µg/mL)
- MIC [10]: 1 µM (≈ 0.318 µg/mL)
- MIC [13]: 4 µM (≈ 1.27 µg/mL)
- MIC [14]: 256 µM (≈ 81.5 µg/mL)
- MIC [15]: 4 µM (≈ 1.27 µg/mL)
- MIC [11]: 0.5 µM (≈ 0.159 µg/mL)
- MIC [16]: 32 µM (≈ 10.2 µg/mL)

Compound: O=C1/C(=N\Nc2nccs2)c2ccccc2N1Cc1ccccc1F
- MIC [1]: 4 µM (≈ 1.41 µg/mL)
- MIC [2]: 512 µM (≈ 180 µg/mL)
- MIC [3]: 4 µM (≈ 1.41 µg/mL)
- MIC [4]: 256 µM (≈ 90.2 µg/mL)
- MIC [12]: 16 µM (≈ 5.64 µg/mL)
- MIC [5]: 8 µM (≈ 2.82 µg/mL)
- MIC [6]: 256 µM (≈ 90.2 µg/mL)
- MIC [7]: 256 µM (≈ 90.2 µg/mL)
- MIC [8]: 8 µM (≈ 2.82 µg/mL)
- MIC [9]: 512 µM (≈ 180 µg/mL)
- MIC [10]: 512 µM (≈ 180 µg/mL)
- MIC [13]: 128 µM (≈ 45.1 µg/mL)
- MIC [14]: 128 µM (≈ 45.1 µg/mL)
- MIC [15]: 128 µM (≈ 45.1 µg/mL)
- MIC [11]: 512 µM (≈ 180 µg/mL)
- MIC [16]: 64 µM (≈ 22.6 µg/mL)

Compound: CCCCCCCCCCN1C(=O)/C(=N\Nc2nccs2)c2ccccc21
- MIC [1]: 512 µM (≈ 197 µg/mL)
- MIC [2]: 512 µM (≈ 197 µg/mL)
- MIC [3]: 512 µM (≈ 197 µg/mL)
- MIC [4]: 512 µM (≈ 197 µg/mL)
- MIC [12]: 64 µM (≈ 24.6 µg/mL)
- MIC [5]: 4 µM (≈ 1.54 µg/mL)
- MIC [6]: 64 µM (≈ 24.6 µg/mL)
- MIC [7]: 64 µM (≈ 24.6 µg/mL)
- MIC [8]: 512 µM (≈ 197 µg/mL)
- MIC [9]: 256 µM (≈ 98.4 µg/mL)
- MIC [10]: 512 µM (≈ 197 µg/mL)
- MIC [13]: 256 µM (≈ 98.4 µg/mL)
- MIC [14]: 512 µM (≈ 197 µg/mL)
- MIC [15]: 256 µM (≈ 98.4 µg/mL)
- MIC [11]: 512 µM (≈ 197 µg/mL)
- MIC [16]: 512 µM (≈ 197 µg/mL)

Compound: CCCCN1C(=O)/C(=N\Nc2nc(C)c(C(C)=O)s2)c2ccccc21
- MIC [1]: 512 µM (≈ 183 µg/mL)
- MIC [2]: 512 µM (≈ 183 µg/mL)
- MIC [3]: 16 µM (≈ 5.7 µg/mL)
- MIC [4]: 16 µM (≈ 5.7 µg/mL)
- MIC [12]: 512 µM (≈ 183 µg/mL)
- MIC [5]: 512 µM (≈ 183 µg/mL)
- MIC [6]: 512 µM (≈ 183 µg/mL)
- MIC [7]: 16 µM (≈ 5.7 µg/mL)
- MIC [8]: 512 µM (≈ 183 µg/mL)
- MIC [9]: 512 µM (≈ 183 µg/mL)
- MIC [10]: 512 µM (≈ 183 µg/mL)
- MIC [13]: 512 µM (≈ 183 µg/mL)
- MIC [14]: 512 µM (≈ 183 µg/mL)
- MIC [15]: 512 µM (≈ 183 µg/mL)
- MIC [11]: 512 µM (≈ 183 µg/mL)
- MIC [16]: 512 µM (≈ 183 µg/mL)
